Here are results for 5 compounds from patent publication US4472286A, “Perfluoroalkyl anion/perfluoroalkyl cation ion pair complexes” (Ciba-Geigy Corporation, priority 1983, dated 1984).

The nature of series [1]: Surface tension of aqueous solutions (ASTM D-1331-56). The class given is physicochemical. As to conditions: for Surface tension, anionic surfactant: Table 5, 0.01%.
The conditions of series [2]: background section; cited from earlier work.
Series [3] can be described thus: Solubility in water of Rf.Rf complexes and precursor surfactants. The class given is physicochemical. On the procedure: The following Table 1 illustrates how a selected type of an Rf Rf ion-pair complex differs in its properties from the precursor anionic and cationic fluorochemical surfactants. Besides the differences shown in Table 1 (solubility, melting point, surface tension), Rf Rf ion-pair complexes also differ in many other properties from their precursor surfactants.
(§1) The products of Examples 1, 2 and 4 were tested for their respective solubility in distilled water.

Series [4] is described as follows: Micellar behavior in distilled water. It is filed as physicochemical. On the procedure: as §1

As for `CCN(CC(=O)O)S(=O)(=O)C(F)(F)C(F)(F)C(F)(F)C(F)(F)C(F)(F)C(F)(F)C(F)(F)C(F)(F)F` [FC-128], the “Surface tension, anionic surfactant alone” value in series [1] (Table 4, at 0.01% in water) is 24.7. Further, the “Surface tension, anionic surfactant” value in series [1] was 24.7.

Turning to decyltrimethylammonium decyl sulfate, in series [2], the “surface tension of aqueous solutions (literature / general knowledge)” value was not below 22 dynes/cm.

In the case of `O=S(=O)(O)C(F)(F)C(F)(F)C(F)(F)C(F)(F)C(F)(F)C(F)(F)C(F)(F)C(F)(F)F` [FC-95], the “Surface tension, anionic surfactant alone” value in series [1] (Table 4, at 0.01% in water) is 42.2. In addition, the “Surface tension, anionic surfactant” value in series [1] was 42.2. “3-(1,1,2,2-tetrahydroperfluorooctylthio)-2-hydroxypropyltrimethylammonium 2-methyl-2-(3-[1,1,2,2-tetrahydroperfluorooctylthio]propanesulfonate [Example 1]”: the “solubility in distilled water” value in series [3] is 5×10^-3 weight %. The “surface tension of concentrated solution” value in series [1] (concentrated solution in distilled water) is reported as 16.9 dynes/cm. Besides, the micellar behavior result in series [4] is “None”.

With `C[N+](C)(C)CCCNS(=O)(=O)C(F)(F)C(F)(F)C(F)(F)C(F)(F)C(F)(F)C(F)(F)C(F)(F)C(F)(F)F` [FC-134], the “Surface tension, cationic surfactant alone” value in series [1] (Table 4, at 0.01% in water) was determined as 17.8.
